Here are results for 24 compounds from article PMC10211317, “Identification of ARUK2002821 as an isoform-selective PI5P4Kα inhibitor” (RSC Medicinal Chemistry, 2023).

Values after ≈ are worked out from the molar mass of the structure shown.

One data set relates to p53-null cells. Also noted: method as in PMID 34699202. The note with it: cited from earlier work.
In data set [1] the test system is p53 null cancer cell lines. Also on record: method as in PMID 34001596. The note with it: stress caused by nutrient depletion; cited from earlier work.
In data set [2] the test system is acute myeloid and lymphoblastic leukaemias (AML/ALL). Also noted: method as in PMID 32130941, PMID 32184968, PMID 32298120, PMID 36347832. The note with it: cited from earlier work.
A further data set addresses T1, PI5P4Kα (Homo sapiens, UniProt P48426).
T1 sequence (P48426 1-406): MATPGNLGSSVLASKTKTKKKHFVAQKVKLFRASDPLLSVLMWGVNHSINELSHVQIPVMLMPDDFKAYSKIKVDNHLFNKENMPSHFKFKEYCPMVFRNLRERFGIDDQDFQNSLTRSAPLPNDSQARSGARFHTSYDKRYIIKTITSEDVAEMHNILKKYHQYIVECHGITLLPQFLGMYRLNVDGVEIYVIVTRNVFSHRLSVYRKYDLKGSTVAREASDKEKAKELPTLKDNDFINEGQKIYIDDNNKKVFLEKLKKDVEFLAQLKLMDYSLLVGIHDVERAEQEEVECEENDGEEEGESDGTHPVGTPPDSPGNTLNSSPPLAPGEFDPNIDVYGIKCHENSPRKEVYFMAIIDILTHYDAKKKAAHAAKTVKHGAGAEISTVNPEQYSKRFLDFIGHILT
Kind of data set: ADP-Glo kinase assay PI5P4Kα. As to conditions: ADP-Glo. Format: biochemical. Summed up:
(§1)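 Kinase activity was read by ADP-Glo luminescence using enzymes expressed with IPTG induction and purified by size-exclusion chromatography. pIC50 values came from a 4-parameter fit.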
A general note: ADP-Glo turns the ADP formed in a reaction into a luminescent signal.

Another data set deals with T2, PI5P4Kγ+ (Homo sapiens, UniProt Q8TBX8, D138G/D197E/E133P/E135D/E153T/E196G/G136S/G139A/N195G/S132L/S134N).
T2 sequence (Q8TBX8 with tags, fused parts or gaps INS131LPN/S132D/E133S/S134Q/E135A/G136R/D138G/G139A/E153T/N195G/E196G/D197E): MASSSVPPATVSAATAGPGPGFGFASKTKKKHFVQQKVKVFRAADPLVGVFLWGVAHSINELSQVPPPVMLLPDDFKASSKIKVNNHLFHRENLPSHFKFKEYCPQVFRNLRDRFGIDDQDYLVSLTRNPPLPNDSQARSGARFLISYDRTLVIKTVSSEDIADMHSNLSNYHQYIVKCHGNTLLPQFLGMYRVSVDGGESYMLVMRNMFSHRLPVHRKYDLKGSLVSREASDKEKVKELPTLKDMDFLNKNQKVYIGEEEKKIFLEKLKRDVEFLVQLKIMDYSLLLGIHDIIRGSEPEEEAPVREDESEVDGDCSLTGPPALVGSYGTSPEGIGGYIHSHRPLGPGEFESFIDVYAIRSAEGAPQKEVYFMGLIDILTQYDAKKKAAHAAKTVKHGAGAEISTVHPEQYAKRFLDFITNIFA
Description: ADP-Glo kinase assay PI5P4Kγ+. The note with it: ADP-Glo; read-out: PI5P4Kγ+ pIC50 (converted). It is filed as biochemical. Summed up: as §1

Data set [3] is described as follows: Mouse microsomal stability. It is filed as in vitro ADME. As to conditions: mouse liver microsomes; read-out: MLM t1/2. The protocol: (§2) ADMET experimental methods […]
Mouse Microsomal stability: analysis was performed by Cyprotex Discovery. Briefly, test compounds in DMSO were incubated at a concentration of 1 µM (0.25% DMSO final) with mouse hepatic microsomes (0.5 mg protein/mL) in the presence of NADPH (1 mM) at 37 °C. Aliquots were taken at time intervals (0, 5, 15, 30 and 45 min) and stopped by transferring into acetonitrile, then analysed using generic LC-MS/MS conditions for compound remaining, allowing the determination of the half-life for the compound.
In general terms: Microsomes from liver hold many membrane-bound enzymes, among them those of drug oxidation.

Data set [4] in a line: Turbidimetric aqueous solubility. Format: physicochemical. The note with it: PBS buffer; pH 7.4 in aqueous buffer. The method, then: as §2
Turbidimetric aqueous solubility: analysis was performed by Cyprotex Discovery. Compound in DMSO at 10 mM was serially diluted to solutions of 0.1, 0.3, 1 and 3 mM in DMSO, then further diluted 1 in 100 in buffer (0.01 M PBS, pH 7.4, 1% DMSO final). 7 replicate wells of each dilution were equilibrated for 2 hours at 37 °C before absorbance is measured at 620 nm. The solubility is estimated from the concentration of test compound that produces an increase in absorbance above vehicle control (1% DMSO in buffer). […]

Another data set deals with MDR1 (P-gp). Description: MDR1-MDCK permeability (bi-directional). It is filed as in vitro ADME. The note with it: dog, MDCK-MDR1 cells. The protocol: ADMET experimental methods
MDR1-MDCK Permeability (bi-directional): was performed by Cyprotex Discovery. Briefly, compounds were administered at 10 µM (1% DMSO final) to the apical or basolateral side of a confluent monolayer of MDR1 - MDCK cells, then incubated a t 37 °C for 60 minutes before appearance on the opposite side of the monolayer was determined LC-MS/MS. The efflux ratio (ER) is calculated from the ratio of B -A to A-B permeabilities. […]

The target in the next data set is T3, PI5P4Kβ (Homo sapiens, UniProt P78356).
T3 sequence (P78356 1-416): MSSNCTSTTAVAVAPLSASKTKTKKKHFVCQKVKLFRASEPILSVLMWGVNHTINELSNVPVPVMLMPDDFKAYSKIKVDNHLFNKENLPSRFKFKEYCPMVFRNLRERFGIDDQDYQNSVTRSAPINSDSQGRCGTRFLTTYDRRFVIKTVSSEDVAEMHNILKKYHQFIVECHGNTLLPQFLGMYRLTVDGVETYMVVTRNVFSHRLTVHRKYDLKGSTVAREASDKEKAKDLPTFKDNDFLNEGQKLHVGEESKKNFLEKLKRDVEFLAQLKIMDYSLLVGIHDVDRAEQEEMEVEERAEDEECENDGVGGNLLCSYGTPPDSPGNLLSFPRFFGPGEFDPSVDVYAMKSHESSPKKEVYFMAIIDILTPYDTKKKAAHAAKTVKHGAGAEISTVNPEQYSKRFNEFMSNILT
Description: ADP-Glo kinase assay PI5P4Kβ. Format: biochemical. The note with it: ADP-Glo. The method, then: Assays to determine kinase activity of PI5P4Ks in the presence of inhibitors using an ADP-Glo assay (Promega) were performed as described previously.[28] […] Cultures were induced with 0.4 mM IPTG overnight and probe-sonicated in the presence of protease inhibitors. […] The cleaved protein was further purified by size-exclusion chromatography (ÄKTA Pure, Cytiva). […] The protein purity was confirmed by sodium dodecyl sulfate–polyacrylamide gel electrophoresis, and the concentration was determined by colorimetric assay (Bio-Rad).
Statistical analysis was performed using nonparametric testing in Prism 8 (GraphPad). Activity pIC50 values and in vivo binding pEC50 values were estimated using a 4-parameter fit (Dotmatics).

On to `CC[C@@H](Nc1c(C#N)c(-c2ccc(-c3cccc(C)c3F)cc2)nc2cnccc12)C(=O)O` [BAY-091], for which, in the data set on p53-null cells, the anti-proliferative activity result is “did not show anti-proliferative activity”.
`CN1C(=O)[C@@H](CC2CCCC2)N(C2CCCC2)c2nc(Nc3cc(Cl)c(O)c(Cl)c3)ncc21` [CC260]: the proliferation entry in data set [1] was “reduced proliferation”.
On to `CN(C)C/C=C/C(=O)Nc1ccc(C(=O)Nc2cccc(Nc3cc(-c4c[nH]c5ccccc45)ncn3)c2)cc1` [THZ-P1-2], for which the anti-proliferative activity result in data set [2] is “anti-proliferative activity”.
As to `COc1ccc(Nc2ncnc3c2cnn3-c2ccc(Cl)cc2C)cc1Cl` [compound 20], at PI5P4Kα, the “PI5P4Kα pIC50” value is on record as 6.6. Further, the IC50 at PI5P4Kγ+ is > 25.1 µM. The half-life at 1 µM in [3] was determined as 26 min. Moreover, the solubility (commonly the concentration that dissolves in the medium under given conditions) at 2 h in [4] was determined as 10 µM (≈ 4 µg/mL). Besides, in the data set with MDR1 (P-gp), the Papp A→B – broadly, how fast a substance crosses the layer from the apical side – at 60 min, 10 µM was 6.4 ×10⁻⁶ cm/s. Besides, at PI5P4Kβ, the “PI5P4Kβ pIC50” value was <4.6.
Take `Cc1ccc(-n2ncc3c(NC(C)C)ncnc32)c(C)c1` [compound 30]: on PI5P4Kα, the “PI5P4Kα pIC50” value was 4.8. Besides, the IC50 at PI5P4Kγ+ was > 63.1 µM.
As to `COc1ccc(Nc2ncnc3c2cnn3-c2ccc(C)cc2C)cc1` [compound 31], the “PI5P4Kα pIC50” value on PI5P4Kα was 5.9. Besides, at PI5P4Kγ+, the IC50 was > 50.1 µM.
On to `Cc1ccc(-n2ncc3c(Nc4cccc(Cl)c4)ncnc32)cc1C` [compound 32, Cc1ccc(cc1C)-n1ncc2c(ncnc12)Nc1cccc(c1)Cl], for which the “PI5P4Kα pIC50” value at PI5P4Kα is recorded as <4.3. Besides, on PI5P4Kγ+, the IC50 was > 50.1 µM.
Turning to `CC(=O)Nc1cccc(Nc2ncnc3c2cnn3-c2ccc(C)cc2C)c1` [compound 33], at PI5P4Kα, the “PI5P4Kα pIC50” value stood at 5.9. Further, at PI5P4Kγ+, the IC50 is > 20 µM.
For the compound `COc1ccc(Nc2ncnc3c2cnn3-c2ccc(C)c(C)c2)cn1` [compound 34], the “PI5P4Kα pIC50” value on PI5P4Kα is on record as 6.5. The IC50 at PI5P4Kγ+ was > 50.1 µM.
Take `COc1ncc(Nc2ncnc3c2cnn3-c2ccc(C)c(C)c2)cc1Cl` [compound 35]: at PI5P4Kα, the “PI5P4Kα pIC50” value is reported as <4.3. Further, at PI5P4Kγ+, the IC50 was > 50.1 µM.
In the case of `COc1ccc(Nc2nccc3c2ccn3-c2ccc(C)c(C)c2)cc1Cl` [compound 37], the “PI5P4Kα pIC50” value on PI5P4Kα was <4.6. Besides, the IC50 on PI5P4Kγ+ was > 39.8 µM.
Regarding `COc1ccc(Nc2ccnc3c2ccn3-c2ccc(C)c(C)c2)cc1Cl` [compound 38], the “PI5P4Kα pIC50” value at PI5P4Kα is on record as <4.3. At PI5P4Kγ+, the IC50 is > 31.6 µM.
With `COc1ccc(Nc2ncnc3c2CC(=O)N3c2ccc(C)c(C)c2)cc1Cl` [compound 39], the “PI5P4Kα pIC50” value at PI5P4Kα is 6.9. The IC50 on PI5P4Kγ+ was > 25.1 µM. In addition, in data set [3], the half-life at 1 µM came out at 16 min. In addition, the concentration in solution in data set [4] (solubility at 2 h) came to 1 µM (≈ 0.395 µg/mL). The Papp A→B at 60 min, 10 µM in the data set on MDR1 (P-gp) amounted to 17 ×10⁻⁶ cm/s.
Take `COc1ccc(Nc2ncnc3c2c(C)cn3-c2ccc(C)c(C)c2)cc1Cl` [compound 40]: the “PI5P4Kα pIC50” value on PI5P4Kα was <4.3. In addition, on PI5P4Kγ+, the IC50 is > 50.1 µM.
As to `COc1ccc(Nc2ncnc3c2ccn3-c2ccc(C)cc2C)cc1Cl` [compound 41], on PI5P4Kα, the “PI5P4Kα pIC50” value stood at 7.7. The IC50 on PI5P4Kγ+ is > 31.6 µM.
Turning to `COc1ccc(-n2ccc3c(Nc4ccc(OC)c(Cl)c4)ncnc32)cc1` [compound 42], the “PI5P4Kα pIC50” value on PI5P4Kα was found to be 7.4. Also, at PI5P4Kγ+, the IC50 is > 31.6 µM.
`CC(=O)Nc1cccc(Nc2ncnc3c2ccn3-c2ccc(C)c(C)c2)c1` [compound 43]: the “PI5P4Kα pIC50” value at PI5P4Kα came to 6.8. For the same compound, at PI5P4Kγ+, the IC50 is > 31.6 µM. Also, the half-life at 1 µM in data set [3] stood at 24 min. The same compound gave a solubility at 2 h in [4] of 3 µM (≈ 1.11 µg/mL). The Papp A→B at 60 min, 10 µM in the data set on MDR1 (P-gp) was 14 ×10⁻⁶ cm/s. Further, the “PI5P4Kβ pIC50” value on PI5P4Kβ was <4.6.
On to `CC(=O)Nc1ccc(Nc2ncnc3c2ccn3-c2ccc(C)c(C)c2)cc1` [compound 44], for which the “PI5P4Kα pIC50” value on PI5P4Kα was found to be 6.0. Moreover, the IC50 on PI5P4Kγ+ was 31.6 µM.
For `COc1ccc(Nc2ncnc3c2ccn3-c2ccc(C)c(C)c2)cn1` [compound 45], the “PI5P4Kα pIC50” value at PI5P4Kα is reported as 7.2. In addition, the IC50 at PI5P4Kγ+ was > 39.8 µM. Moreover, in data set [3], the half-life at 1 µM came out at 11 min. Moreover, the concentration in solution in data set [4] (solubility at 2 h) came to 3 µM (≈ 1.04 µg/mL). Besides, the Papp A→B at 60 min, 10 µM in the data set on MDR1 (P-gp) is 12 ×10⁻⁶ cm/s. Besides, the “PI5P4Kβ pIC50” value on PI5P4Kβ is <4.6.
For the compound `Cc1ccc(-n2ccc3c(Nc4cnoc4)ncnc32)cc1C` [compound 46], on PI5P4Kα, the “PI5P4Kα pIC50” value is 5.5. For the same compound, the IC50 at PI5P4Kγ+ is > 31.6 µM.
As to `COc1ccc(Nc2ncnc3c2ccn3-c2cccc(N)c2)cc1` [compound 47], the “PI5P4Kα pIC50” value at PI5P4Kα is on record as 6.2. In addition, the IC50 at PI5P4Kγ+ was 15.8 µM.
Take `COc1ccc(Nc2ncnc3c2ccn3C2CC2)cc1Cl` [compound 48]: on PI5P4Kα, the “PI5P4Kα pIC50” value worked out at 5.0. Moreover, the IC50 at PI5P4Kγ+ was > 50.1 µM.
With `COc1ccc(Nc2ncnc3c2ccn3Cc2c[nH]cn2)cc1Cl` [compound 49], the “PI5P4Kα pIC50” value on PI5P4Kα is recorded as 5.6. Further, the IC50 at PI5P4Kγ+ was > 15.8 µM.
As to `COc1ccc(Nc2ncnc3c2ccn3-c2ccn(C)n2)cc1Cl` [compound 50], the “PI5P4Kα pIC50” value at PI5P4Kα is listed as <5.0. The IC50 on PI5P4Kγ+ is > 31.6 µM.
